Test results from patent US10526327B2, “Histone demethylase inhibitors” (CELGENE QUANTICEL RESEARCH, INC., priority 2013, dated 2020).

What was measured:
Jarid1B = target: T1, Jarid1B (Homo sapiens, UniProt Q9UGL1); assay: Jarid1B in vitro enzyme inhibition assay (TR-FRET); type: biochemical
T1 construct: purchased BPS Bioscience or custom made by MolecularThroughput 50121
T1 sequence (Q9UGL1 2-751): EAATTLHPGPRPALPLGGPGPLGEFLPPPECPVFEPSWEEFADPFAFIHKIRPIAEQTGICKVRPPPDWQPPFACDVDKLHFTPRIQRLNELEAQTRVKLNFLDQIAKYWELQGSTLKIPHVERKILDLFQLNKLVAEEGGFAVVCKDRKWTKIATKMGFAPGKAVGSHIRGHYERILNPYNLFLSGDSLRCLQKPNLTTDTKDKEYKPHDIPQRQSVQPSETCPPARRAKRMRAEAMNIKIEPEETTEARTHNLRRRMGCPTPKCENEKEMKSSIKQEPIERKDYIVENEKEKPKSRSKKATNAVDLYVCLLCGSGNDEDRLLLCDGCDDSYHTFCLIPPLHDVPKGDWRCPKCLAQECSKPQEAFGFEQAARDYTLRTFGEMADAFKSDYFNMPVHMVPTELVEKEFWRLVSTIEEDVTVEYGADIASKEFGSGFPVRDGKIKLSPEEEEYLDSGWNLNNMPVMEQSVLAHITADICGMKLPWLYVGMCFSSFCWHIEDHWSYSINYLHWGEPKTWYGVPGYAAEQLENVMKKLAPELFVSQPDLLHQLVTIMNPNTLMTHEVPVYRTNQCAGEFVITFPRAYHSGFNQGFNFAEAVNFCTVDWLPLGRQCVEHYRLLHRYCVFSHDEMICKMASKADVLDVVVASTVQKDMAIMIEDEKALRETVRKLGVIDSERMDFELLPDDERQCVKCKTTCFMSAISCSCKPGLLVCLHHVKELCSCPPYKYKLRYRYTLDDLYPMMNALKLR
Excerpt: (§1) This assay determines the ability of a test compound to inhibit Jarid1A, Jarid1B, and JMJD2C demethylase activity. Baculovirus expressed Jarid1A (GenBank Accession #NM_001042603, AA1-1090) was purchased from BPS Bioscience (Cat#50110). Baculovirus expressed Jarid1B (GenBank Accession #NM_006618, AA 2-751) was purchased from BPS Bioscience (Cat #50121) or custom made by MolecularThroughput. Baculovirus expressed JMJD2C (GenBank Accession #BC143571, AA 2-372) was purchased from BPS Bioscience (Cat#50105).
The ability of test compounds to inhibit the activity of Jarid1B was determined in 384-well plate format under the following reaction conditions: 0.8 nM Jarid1B, 300 nM H3K4me3-biotin labeled peptide (Anaspec cat #64357), 2 μM alpha-ketoglutaric acid in assay buffer of 50 mM HEPES, pH7.3, 0.005% Brij35, 0.5 mM TCEP, 0.2 mg/ml BSA, 50 μM sodium L-ascorbate, and 2 μM ammonium iron(II) sulfate. Reaction product was determined quantitatively by TR-FRET after the addition of detection reagent Phycolink Streptavidin-allophycocyanin (Prozyme) and Europium-anti-mono-or di-methylated histone H3 lysine 4 (H3K4me1-2) antibody (PerkinElmer) in the presence of 5 mM EDTA in LANCE detection buffer (PerkinElmer) at a final concentration of 25 nM and 1 nM, respectively.
(§2) The assay reaction was initiated by the following: 2 μl of the mixture of 900 nM H3K4me3-biotin labeled peptide and 6 μM alpha-ketoglutaric acid with 2 μl of 11-point serial diluted inhibitor in 3% DMSO was added to each well of the plate, followed by the addition of 2 μl of 2.4 nM Jarid1B to initiate the reaction. The reaction mixture was incubated at room temperature for 30 minutes, and terminated by the addition of 6 μl of 5 mM EDTA in LANCE detection buffer containing 50 nM Phycolink Streptavidin-allophycocyanin and 2 nM Europium-anti-H3K4me1-2 antibody. Plates were read by EnVisionMultilabel Reader in TR-FRET mode (excitation at 320 nm, emission at 615 nm and 665 nm) after 1 hour incubation at room temperature. A ratio was calculated (665/615) for each well and fitted to determine inhibition constant (IC50).

JMJD2C = target: T2, JMJD2C (Homo sapiens, UniProt Q9H3R0); assay: JMJD2C in vitro enzyme inhibition assay (TR-FRET); type: biochemical
T2 construct: purchased BPS Bioscience 50105
T2 sequence (Q9H3R0 2-372): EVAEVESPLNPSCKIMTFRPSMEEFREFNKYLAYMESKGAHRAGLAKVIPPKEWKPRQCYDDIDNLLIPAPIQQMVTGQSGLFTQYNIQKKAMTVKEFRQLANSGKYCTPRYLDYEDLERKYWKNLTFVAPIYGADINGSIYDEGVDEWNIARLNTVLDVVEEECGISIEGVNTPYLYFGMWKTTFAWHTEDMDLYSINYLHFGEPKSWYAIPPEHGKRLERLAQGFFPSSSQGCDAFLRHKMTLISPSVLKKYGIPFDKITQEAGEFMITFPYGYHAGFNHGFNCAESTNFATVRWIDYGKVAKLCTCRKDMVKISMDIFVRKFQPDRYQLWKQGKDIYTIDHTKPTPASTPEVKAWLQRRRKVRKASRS
Excerpt: as §1
The ability of test compounds to inhibit the activity of JMJD2C was determined in 384-well plate format under the following reaction conditions: 0.3 nM JMJD2C, 300 nM H3K9me3-biotin labeled peptide (Anaspec cat #64360), 2 μM alpha-ketoglutaric acid in assay buffer of 50 mM HEPES, pH7.3, 0.005% Brij35, 0.5 mM TCEP, 0.2 mg/ml BSA, 50 μM sodium L-ascorbate, and 2 μM ammonium iron(II) sulfate. Reaction product was determined quantitatively by TR-FRET after the addition of detection reagent Phycolink Streptavidin-allophycocyanin (Prozyme) and Europium-anti-di-methylated histone H3 lysine 9 (H3K9me2) antibody (PerkinElmer) in the presence of 5 mM EDTA in LANCE detection buffer (PerkinElmer) at a final concentration of 50 nM and 1 nM, respectively.
as §2, with “nM H3K9me3-biotin” for “nM H3K4me3-biotin”, “DMSO were” for “DMSO was”, “of 0.9” for “of 2.4”, “nM JMJD2C” for “nM Jarid1B”, “containing 100” for “containing 50”, “nM Europium-anti-H3K9me2” for “nM Europium-anti-H3K4me1-2”

| Structure (SMILES) | IC50 (Jarid1B) | IC50 (JMJD2C) |
| --- | --- | --- |
| OCCOc1nc(O)c2ccncc2n1 [Example 3, 2-(2-hydroxyethoxy)pyrido[3,4-d]pyrimidin-4-ol] | 100 to 1000 nM | 100 to 1000 nM |
| Oc1nc(OCc2ccccc2)nc2cnccc12 [Example 4, 2-phenylmethoxypyrido[3,4-d]pyrimidin-4-ol] | 100 to 1000 nM | 100 to 1000 nM |
| Oc1nc(OCC2CC2)nc2cnccc12 [Example 5, 2-(cyclopropylmethoxy)-3H-pyrido[3,4-d]pyrimidin-4-one] | 100 to 1000 nM | 100 to 1000 nM |
| Oc1nc(OC2CCCC2)nc2cnccc12 [Example 6, 2-cyclopentyloxy-3H-pyrido[3,4-d]pyrimidin-4-one] | 100 to 1000 nM | 100 to 1000 nM |
| CCCOc1nc(O)c2ccncc2n1 [Example 7, 2-propoxy-3H-pyrido[3,4-d]pyrimidin-4-one] | 100 to 1000 nM | 100 to 1000 nM |
| COc1nc(O)c2ccncc2n1 [Example 8, 2-methoxypyrido[3,4-d]pyrimidin-4-ol] | 100 to 1000 nM | 100 to 1000 nM |
| CCC(C)Oc1nc(O)c2ccncc2n1 (stereo not shown) [Example 9, 2-butan-2-yloxy-3H-pyrido[3,4-d]pyrimidin-4-one] | 1000 to 10000 nM | ≤ 100 nM |
| Oc1nc(OCCOc2ccccc2)nc2cnccc12 [Example 10, 2-(2-phenoxyethoxy)-3H-pyrido[3,4-d]pyrimidin-4-one] | 100 to 1000 nM | 100 to 1000 nM |
| Oc1nc(OCC2CCC2)nc2cnccc12 [Example 11, 2-(cyclobutylmethoxy)-3H-pyrido[3,4-d]pyrimidin-4-one] | 100 to 1000 nM | 100 to 1000 nM |
| Oc1nc(OCC(F)(F)F)nc2cnccc12 [Example 12, 2-(2,2,2-trifluoroethoxy)pyrido[3,4-d]pyrimidin-4-ol] | 100 to 1000 nM | 100 to 1000 nM |
| CC(=O)Nc1ccc(Oc2nc(O)c3ccncc3n2)cc1 [Example 35, N-[4-(4-hydroxypyrido[3,4-d]pyrimidin-2-yl)oxyphenyl]acetamide] | ≤ 100 nM | 100 to 1000 nM |
| CC(C)(C)OC(=O)Nc1cccc(Oc2nc(O)c3ccncc3n2)c1 [Example 36, tert-butyl N-[3-(4-hydroxypyrido[3,4-d]pyrimidin-2-yl)oxyphenyl]carbamate] | ≤ 100 nM | 100 to 1000 nM |
| COc1ccc(Oc2nc(O)c3ccncc3n2)cc1OC [Example 38, 2-(3,4-dimethoxyphenoxy)pyrido[3,4-d]pyrimidin-4-ol] | ≤ 100 nM | 100 to 1000 nM |
| COc1c(F)cc(Oc2nc(O)c3ccncc3n2)cc1F [Example 43, 2-(3,5-difluoro-4-methoxyphenoxy)pyrido[3,4-d]pyrimidin-4-ol] | ≤ 100 nM | 100 to 1000 nM |
| CCOc1c(F)cc(Oc2nc(O)c3ccncc3n2)cc1F [Example 45, 2-(4-ethoxy-3,5-difluorophenoxy)pyrido[3,4-d]pyrimidin-4-ol] | ≤ 100 nM | 100 to 1000 nM |
| Oc1nc(Oc2ccccc2F)nc2cnccc12 [Example 46, 2-(2-fluorophenoxy)pyrido[3,4-d]pyrimidin-4-ol] | 100 to 1000 nM | 100 to 1000 nM |
| COc1ccc(Oc2nc(O)c3ccncc3n2)cc1 [Example 48, 2-(4-methoxyphenoxy)pyrido[3,4-d]pyrimidin-4-ol] | ≤ 100 nM | ≤ 100 nM |
| Oc1nc(Oc2ccc(Cl)cc2)nc2cnccc12 [Example 49, 2-(4-chlorophenoxy)pyrido[3,4-d]pyrimidin-4-ol] | ≤ 100 nM | ≤ 100 nM |
| CCCn1cc(Oc2nc(O)c3ccncc3n2)cn1 [Example 54, 2-(1-propylpyrazol-4-yl)oxypyrido[3,4-d]pyrimidin-4-ol] | ≤ 100 nM | 100 to 1000 nM |

Results, then the compound that gave them:

| IC50 (Jarid1B) | IC50 (JMJD2C) | Structure (SMILES) |
| --- | --- | --- |
| ≤ 100 nM | ≤ 100 nM | Oc1nc(Oc2ccc(F)c(F)c2)nc2cnccc12 [Example 37, 2-(3,4-difluorophenoxy)pyrido[3,4-d]pyrimidin-4-ol] |
| ≤ 100 nM | 100 to 1000 nM | CC(C)c1cccc(Oc2nc(O)c3ccncc3n2)c1 [Example 39, 2-(3-propan-2-ylphenoxy)pyrido[3,4-d]pyrimidin-4-ol] |
| ≤ 100 nM | ≤ 100 nM | Oc1nc(Oc2cccc(F)c2)nc2cnccc12 [Example 40, 2-(3-fluorophenoxy)pyrido[3,4-d]pyrimidin-4-ol] |
| ≤ 100 nM | 100 to 1000 nM | Oc1nc(Oc2cccc(Cl)c2)nc2cnccc12 [Example 41, 2-(3-chlorophenoxy)pyrido[3,4-d]pyrimidin-4-ol] |
| 100 to 1000 nM | 100 to 1000 nM | Oc1nc(Oc2cccc(F)c2F)nc2cnccc12 [Example 42, 2-(2,3-difluorophenoxy)pyrido[3,4-d]pyrimidin-4-ol] |
| ≤ 100 nM | 100 to 1000 nM | COc1cccc(Oc2nc(O)c3ccncc3n2)c1 [Example 44, 2-(3-methoxyphenoxy)pyrido[3,4-d]pyrimidin-4-ol] |
| ≤ 100 nM | 100 to 1000 nM | Oc1nc(Oc2ccc(F)cc2)nc2cnccc12 [Example 47, 2-(4-fluorophenoxy)pyrido[3,4-d]pyrimidin-4-ol] |
| ≤ 100 nM | 100 to 1000 nM | CN(C)c1cccc(Oc2nc(O)c3ccncc3n2)c1 [Example 50, 2-[3-(dimethylamino)phenoxy]pyrido[3,4-d]pyrimidin-4-ol] |
| ≤ 100 nM | 100 to 1000 nM | Oc1nc(Oc2cccc(C(F)(F)F)c2)nc2cnccc12 [Example 52, 2-[3-(trifluoromethyl)phenoxy]pyrido[3,4-d]pyrimidin-4-ol] |
| ≤ 100 nM | 100 to 1000 nM | COc1ccc(Oc2nc(O)c3ccncc3n2)cc1F [Example 53, 2-(3-fluoro-4-methoxyphenoxy)pyrido[3,4-d]pyrimidin-4-ol] |
